Results from US9695155B2, “Herbicidal substituted pyrimidinyloxy benzene compounds” (E. I. DU PONT DE NEMOURS AND COMPANY, priority 2013, dated 2017).

Experiments:
lambsquarters = experiment: Test D preemergence; assay type: in vivo, Chenopodium album; conditions: for pest or weed control at 16 g/ha: read-out: Plant response rating, Lambsquarters
Source text: (§1) Seeds of plant species selected from bluegrass (annual bluegrass, Poa annua), blackgrass (Alopecurus myosuroides), canarygrass (littleseed canarygrass, Phalaris minor), chickweed (common chickweed, Stellaria media), galium (catchweed bedstraw, Galium aparine), bromegrass, downy (downy bromegrass, Bromus tectorum), field poppy (Papaver rhoeas), field violet (Viola arvensis), green foxtail (Setaria viridis), deadnettle (henbit deadnettle, Lamium amplexicaule), Italian ryegrass (Lolium multiflorum), kochia (Kochia scoparia), lambsquarters (Chenopodium album), oilseed rape (Brassica napus), pigweed (Amaranthus retroflexus), chamomile (scentless chamomile, Matricaria inodora), Russian thistle (Salsola kali), speedwell (bird's-eye speedwell, Veronica persica), spring barley (Hordeum vulgare), spring wheat (Triticum aestivum), wild buckwheat (Polygonum convolvulus), wild mustard (Sinapis arvensis), wild oat (Avena fatua), wild radish (Raphanus raphanistrum), windgrass (Apera spica-venti), winter barley (Hordeum vulgare), and winter wheat (Triticum aestivum) were planted into a silt loam soil and treated preemergence with test chemicals formulated in a non-phytotoxic solvent mixture which included a surfactant.
(§2) At the same time, these species were planted in pots containing Redi-Earth® planting medium (Scotts Company, 14111 Scottslawn Road, Marysville, Ohio 43041) comprising spaghnum peat moss, vermiculite, wetting agent and starter nutrients and treated with postemergence applications of the test chemicals formulated in the same manner. Plants ranged in height from 2 to 18 cm (1- to 4-leaf stage). Treated plants and controls were maintained in a controlled growth environment for 7 to 21 days after which time all species were compared to controls and visually evaluated. Plant response ratings, summarized in Table D, are based on a scale of 0 to 100 where 0 is no effect and 100 is complete control. A dash (-) response means no test result.

arrowleaf sida [1] = experiment: Test E postemergence; assay type: in vivo, Sida rhombifolia; conditions: Sida rhombifolia, post-emergence, read-out: Plant response rating, Arrowleaf Sida; for pest or weed control at 31 g/ha / pest or weed control at 62 g/ha / pest or weed control at 125 g/ha: Postemergence, scale 0 to 100; for pest or weed control at 31 g/ha: 31 g ai/ha; for pest or weed control at 62 g/ha: 62 g ai/ha; for pest or weed control at 125 g/ha: 125 g ai/ha; for pest or weed control at 16 g/ha: 16 g ai/ha
Procedure, shortened: (§3)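 Compound in a non-phytotoxic solvent mixture with surfactant was applied preemergence to seeds in silt loam soil, or postemergence to plants 2 to 18 cm tall grown in peat-based potting medium. Plants were kept in a greenhouse for 14 to 21 days, then rated visually against untreated controls on a 0 (no effect) to 100 (complete control) scale.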

chickweed = experiment: Test D preemergence; assay type: in vivo, Stellaria media; conditions: for pest or weed control at 16 g/ha: read-out: Plant response rating, Chickweed
Source text: as §1, §2

barnyardgrass = experiment: Test E preemergence; assay type: in vivo, Echinochloa crus-galli; conditions: for Barnyardgrass plant response rating: scale 0 to 100 (0 no effect, 100 complete control); for Plant response rating, Barnyardgrass: scale 0 to 100, 0 no effect, 100 complete control
Procedure, shortened: as §3

sandbur = experiment: Test E preemergence; assay type: in vivo, Cenchrus echinatus; conditions: for Sandbur plant response rating: scale 0 to 100 (0 no effect, 100 complete control); for Plant response rating, Sandbur: scale 0 to 100, 0 no effect, 100 complete control
Procedure, shortened: as §3

wild poinsettia = experiment: Test E preemergence; assay type: in vivo, Euphorbia heterophylla; conditions: for Poinsettia, Wild plant response rating: scale 0 to 100 (0 no effect, 100 complete control); for Plant response rating, Poinsettia, Wild: scale 0 to 100, 0 no effect, 100 complete control
Procedure, shortened: as §3

goosegrass = experiment: Test E preemergence; assay type: in vivo, Eleusine indica; conditions: for Goosegrass plant response rating: scale 0 to 100 (0 no effect, 100 complete control); for Plant response rating, Goosegrass: scale 0 to 100, 0 no effect, 100 complete control
Procedure, shortened: as §3

hairy beggarticks = experiment: Test E preemergence; assay type: in vivo, Bidens pilosa; conditions: for Beggarticks plant response rating: scale 0 to 100 (0 no effect, 100 complete control); for Plant response rating, Beggarticks: scale 0 to 100, 0 no effect, 100 complete control
Procedure, shortened: as §3

giant foxtail = experiment: Test E preemergence; assay type: in vivo, Setaria faberii; conditions: for Foxtail, Giant plant response rating: scale 0 to 100 (0 no effect, 100 complete control); for Plant response rating, Foxtail, Giant: scale 0 to 100, 0 no effect, 100 complete control
Procedure, shortened: as §3

surinam grass = experiment: Test E preemergence; assay type: in vivo, Brachiaria decumbens; conditions: for Surinam Grass plant response rating: scale 0 to 100 (0 no effect, 100 complete control); for Plant response rating, Surinam Grass: scale 0 to 100, 0 no effect, 100 complete control
Procedure, shortened: as §3

green foxtail = experiment: Test E preemergence; assay type: in vivo, Setaria viridis; conditions: for Foxtail, Green plant response rating: scale 0 to 100 (0 no effect, 100 complete control); for Plant response rating, Foxtail, Green: scale 0 to 100, 0 no effect, 100 complete control
Procedure, shortened: as §3

nightshade = experiment: Test E preemergence; assay type: in vivo, Solanum ptycanthum; conditions: for Nightshade plant response rating: scale 0 to 100 (0 no effect, 100 complete control); for Plant response rating, Nightshade: scale 0 to 100, 0 no effect, 100 complete control
Procedure, shortened: as §3

arrowleaf sida [2] = experiment: Test E preemergence; assay type: in vivo, Sida rhombifolia; conditions: for Arrowleaf Sida plant response rating: scale 0 to 100 (0 no effect, 100 complete control); for Plant response rating, Arrowleaf Sida: scale 0 to 100, 0 no effect, 100 complete control
Procedure, shortened: as §3

[3] = Chenopodium album, pre-emergence, 16 g ai/ha, scale 0 (no effect) to 100 (complete control)
[4] = Chenopodium album, pre-emergence, 31 g ai/ha, scale 0-100, read-out: Plant response rating, Lambsquarters
[5] = Chenopodium album, pre-emergence, 62 g ai/ha, scale 0-100, read-out: Plant response rating, Lambsquarters
[6] = Chenopodium album, pre-emergence, 125 g ai/ha, scale 0-100, read-out: Plant response rating, Lambsquarters
[7] = postemergence, scale 0 to 100, 0 no effect, 100 complete control
[8] = Stellaria media, pre-emergence, 16 g ai/ha, scale 0 (no effect) to 100 (complete control)
[9] = Stellaria media, pre-emergence, 31 g ai/ha, scale 0-100, read-out: Plant response rating, Chickweed
[10] = Stellaria media, pre-emergence, 62 g ai/ha, scale 0-100, read-out: Plant response rating, Chickweed
[11] = Stellaria media, pre-emergence, 125 g ai/ha, scale 0-100, read-out: Plant response rating, Chickweed
[12] = 16 g ai/ha, scale 0 (no effect) to 100 (complete control)

N#Cc1cccc(Oc2ncc(Cl)cn2)c1-n1cc(OCC(F)(F)F)cn1 [Compound 274, 3-[(5-chloro-2-pyrimidinyl)oxy]-2-[4-(2,2,2-trifluoroethoxy)-1H-pyrazol-1-yl]benzonitrile]
pest or weed control at 16 g/ha (lambsquarters; [3]): 20%
pest or weed control at 31 g/ha (lambsquarters; [4]): 90%
pest or weed control at 62 g/ha (lambsquarters; [5]): 100%
pest or weed control at 125 g/ha (lambsquarters; [6]): 100%
pest or weed control at 31 g/ha (arrowleaf sida [1]): 60%
pest or weed control at 62 g/ha (arrowleaf sida [1]): 75%
pest or weed control at 125 g/ha (arrowleaf sida [1]): 85%
pest or weed control at 8 g/ha (arrowleaf sida [1]; postemergence, 8 g ai/ha, scale 0 to 100, 0 no effect, 100 complete control): 55%
pest or weed control at 16 g/ha (arrowleaf sida [1]; [7]): 75%
pest or weed control at 16 g/ha (chickweed; [8]): 60%
pest or weed control at 31 g/ha (chickweed; [9]): 85%
pest or weed control at 62 g/ha (chickweed; [10]): 100%
pest or weed control at 125 g/ha (chickweed; [11]): 100%

Fc1cccc(Oc2ncc(Cl)cn2)c1-n1cc(C(F)F)nn1 [Compound 141, 5-chloro-2-[2-[4-(difluoromethyl)-1H-1,2,3-triazol-1-yl]-3-fluorophenoxy]pyrimidine]
pest or weed control at 16 g/ha (lambsquarters; [3]): 100%
pest or weed control at 31 g/ha (lambsquarters; [4]): 100%
pest or weed control at 62 g/ha (lambsquarters; [5]): 100%
pest or weed control at 125 g/ha (lambsquarters; [6]): 100%
pest or weed control at 16 g/ha (chickweed; [8]): 100%
pest or weed control at 31 g/ha (chickweed; [9]): 100%
pest or weed control at 62 g/ha (chickweed; [10]): 100%
pest or weed control at 125 g/ha (chickweed; [11]): 100%

FCc1cccc(Oc2ncc(Cl)cn2)c1-n1cc(I)cn1 [Compound 245]
Plant response rating, Lambsquarters (lambsquarters; [12]): 85
Plant response rating, Lambsquarters (lambsquarters; 31 g ai/ha, scale 0-100): 100
Plant response rating, Lambsquarters (lambsquarters; 62 g ai/ha, scale 0-100): 100
Plant response rating, Lambsquarters (lambsquarters; 125 g ai/ha, scale 0-100): 100
Plant response rating, Chickweed (chickweed; [12]): 55
Plant response rating, Chickweed (chickweed; 31 g ai/ha, scale 0-100): 85
Plant response rating, Chickweed (chickweed; 62 g ai/ha, scale 0-100): 100
Plant response rating, Chickweed (chickweed; 125 g ai/ha, scale 0-100): 100

N#Cc1cccc(Oc2ncc(Cl)cn2)c1-n1cc(Br)cn1 [Compound 52, 2-(4-bromo-1H-pyrazol-1-yl)-3-[(5-chloro-2-pyrimidinyl)oxy]benzonitrile]
pest or weed control at 31 g/ha (lambsquarters; [4]): 80%
pest or weed control at 62 g/ha (lambsquarters; [5]): 100%
pest or weed control at 125 g/ha (lambsquarters; [6]): 100%
pest or weed control at 250 g/ha (lambsquarters; Chenopodium album, pre-emergence, 250 g ai/ha, scale 0-100, read-out: Plant response rating, Lambsquarters): 100%
Barnyardgrass plant response rating (barnyardgrass; 16 g ai/ha, preemergence): 0
Barnyardgrass plant response rating (barnyardgrass; 31 g ai/ha, preemergence): 0
Plant response rating, Barnyardgrass (barnyardgrass; Preemergence, 62 g ai/ha): 30
Plant response rating, Barnyardgrass (barnyardgrass; preemergence, 125 g ai/ha): 75
Plant response rating, Barnyardgrass (barnyardgrass; preemergence, 250 g ai/ha): 98
Sandbur plant response rating (sandbur; 16 g ai/ha): 0
Sandbur plant response rating (sandbur; 31 g ai/ha): 0
Sandbur plant response rating (sandbur; 62 g ai/ha): 10
Plant response rating, Sandbur (sandbur; 125 g ai/ha): 35
Plant response rating, Sandbur (sandbur; 250 g ai/ha): 80
Poinsettia, Wild plant response rating (wild poinsettia; 16 g ai/ha): 0
Poinsettia, Wild plant response rating (wild poinsettia; 31 g ai/ha): 0
Poinsettia, Wild plant response rating (wild poinsettia; 62 g ai/ha): 25
Plant response rating, Poinsettia, Wild (wild poinsettia; 125 g ai/ha): 50
Plant response rating, Poinsettia, Wild (wild poinsettia; 250 g ai/ha): 100
pest or weed control at 31 g/ha (arrowleaf sida [1]): 60%
pest or weed control at 62 g/ha (arrowleaf sida [1]): 70%
pest or weed control at 125 g/ha (arrowleaf sida [1]): 70%
pest or weed control at 16 g/ha (arrowleaf sida [1]; [7]): 50%
Goosegrass plant response rating (goosegrass; 16 g ai/ha): 5
Goosegrass plant response rating (goosegrass; 31 g ai/ha): 50
Goosegrass plant response rating (goosegrass; 62 g ai/ha): 65
Plant response rating, Goosegrass (goosegrass; 125 g ai/ha): 98
Plant response rating, Goosegrass (goosegrass; 250 g ai/ha): 100
Beggarticks plant response rating (hairy beggarticks; 16 g ai/ha, preemergence): 0
Beggarticks plant response rating (hairy beggarticks; 31 g ai/ha, preemergence): 0
Plant response rating, Beggarticks (hairy beggarticks; Preemergence, 62 g ai/ha): 0
Plant response rating, Beggarticks (hairy beggarticks; preemergence, 125 g ai/ha): 40
Plant response rating, Beggarticks (hairy beggarticks; preemergence, 250 g ai/ha): 65
Foxtail, Giant plant response rating (giant foxtail; 16 g ai/ha): 0
Foxtail, Giant plant response rating (giant foxtail; 31 g ai/ha): 70
Foxtail, Giant plant response rating (giant foxtail; 62 g ai/ha): 70
Plant response rating, Foxtail, Giant (giant foxtail; 125 g ai/ha): 100
Plant response rating, Foxtail, Giant (giant foxtail; 250 g ai/ha): 100
Surinam Grass plant response rating (surinam grass; 16 g ai/ha): 0
Surinam Grass plant response rating (surinam grass; 31 g ai/ha): 0
Surinam Grass plant response rating (surinam grass; 62 g ai/ha): 0
Plant response rating, Surinam Grass (surinam grass; 125 g ai/ha): 10
Plant response rating, Surinam Grass (surinam grass; 250 g ai/ha): 10
Foxtail, Green plant response rating (green foxtail; 16 g ai/ha): 0
Foxtail, Green plant response rating (green foxtail; 31 g ai/ha): 20
Foxtail, Green plant response rating (green foxtail; 62 g ai/ha): 75
Plant response rating, Foxtail, Green (green foxtail; 125 g ai/ha): 80
Plant response rating, Foxtail, Green (green foxtail; 250 g ai/ha): 100
pest or weed control at 31 g/ha (chickweed; [9]): 100%
pest or weed control at 62 g/ha (chickweed; [10]): 100%
pest or weed control at 125 g/ha (chickweed; [11]): 100%
pest or weed control at 250 g/ha (chickweed; Stellaria media, pre-emergence, 250 g ai/ha, scale 0-100, read-out: Plant response rating, Chickweed): 100%
Nightshade plant response rating (nightshade; 16 g ai/ha): 0
Nightshade plant response rating (nightshade; 31 g ai/ha): 0
Nightshade plant response rating (nightshade; 62 g ai/ha): 75
Plant response rating, Nightshade (nightshade; 125 g ai/ha): 98
Plant response rating, Nightshade (nightshade; 250 g ai/ha): 100
Arrowleaf Sida plant response rating (arrowleaf sida [2]; 16 g ai/ha, preemergence): 35
Arrowleaf Sida plant response rating (arrowleaf sida [2]; 31 g ai/ha, preemergence): 40
Plant response rating, Arrowleaf Sida (arrowleaf sida [2]; Preemergence, 62 g ai/ha): 60
Plant response rating, Arrowleaf Sida (arrowleaf sida [2]; preemergence, 125 g ai/ha): 80
Plant response rating, Arrowleaf Sida (arrowleaf sida [2]; preemergence, 250 g ai/ha): 100
